Test [1] has as its system T. b. brucei AnTAR1.1 PPYRE9. Nature of the test: Mouse model of stage 2 HAT (BLI, parasitaemia, SL-RNA qPCR). Conditions: for BLI of the head region, RLU data: individual animals; for RLU data, individual mice: Melarsoprol. In kind it is in vivo. On the procedure: […] Treatment was initiated at 21 dpi. […] Mice were injected i.p. with […] of D-luciferin and anaesthetised using isoflurane. The luminescent signal was acquired from both the dorsal and ventral side of the animals. […] Animals subjected to the different treatment schemes (from 4 wpi) were additionally imaged over a 5 min exposure time for enhanced sensitivity. […] Tissues were weighed and RNA was extracted using the RNeasy Plus Mini Kit (Qiagen) according to the manufacturer’s recommendations. […] A list of primers used is provided in the Supplementary Methods section of the Supplementary Information. BLI images from the IVIS Spectrum In Vivo Imaging System (Perkin Elmer) were analysed using LivingImage v4.3.1. SoftWoRx suite 2.0 for microscopy (image deconvolution), then processing using the Fiji software.
For orientation: Real-time PCR tracks product formation cycle by cycle.

In test [2] the test system is Lister 427WT T. b. brucei. Description: Adenosine deaminase susceptibility (drug sensitivity with/without 2 µM deoxycoformycin). It counts as cell-based, Trypanosoma brucei brucei. As to the method: Drug susceptibility tests with Lister 427WT, TbAT1-KO[48], B48[26] and ISMR1[27] were performed using an assay based on the viability indicator dye resazurin in 96-well plates, each well containing 2 × 10^4 cells. The plates were incubated for 48 h with a doubling dilution series of the test compounds in HMI-9/fetal bovine serum at 37 °C/5% CO2 (23 dilutions starting at 100 µM, except for the pentamidine control (50 µM)), after which resazurin (20 µL of 125 µg mL^−1 resazurin sodium salt solution was added to each well (containing 200 µL of cells and test compound)) was added to each well and the plates incubated for another 24 h. Fluorescence was determined using a FLUOstar Optima (BMG Labtech, Durham, NC) and the results fitted to a sigmoid curve with variable slope using Prism 5.0 or Prism 7.04 (GraphPad, San Diego, CA). […]
Adenosine deaminase susceptibility
in the presence or absence of 2 µM 2’-deoxycoformycin. […]

In test [3] the test system is T. b. brucei Lister 427WT. Description: Drug susceptibility test (resazurin), Lister 427WT. It counts as cell-based, Trypanosoma brucei brucei. Conditions: Trypanosoma brucei. On the procedure:
(§1) Drug susceptibility tests with Lister 427WT, TbAT1-KO[48], B48[26] and ISMR1[27] were performed using an assay based on the viability indicator dye resazurin in 96-well plates, each well containing 2 × 10^4 cells. The plates were incubated for 48 h with a doubling dilution series of the test compounds in HMI-9/fetal bovine serum at 37 °C/5% CO2 (23 dilutions starting at 100 µM, except for the pentamidine control (50 µM)), after which resazurin (20 µL of 125 µg mL^−1 resazurin sodium salt solution was added to each well (containing 200 µL of cells and test compound)) was added to each well and the plates incubated for another 24 h. Fluorescence was determined using a FLUOstar Optima (BMG Labtech, Durham, NC) and the results fitted to a sigmoid curve with variable slope using Prism 5.0 or Prism 7.04 (GraphPad, San Diego, CA).
A general note: Alamar Blue is a resazurin reagent that responds to reducing activity.

In test [4] the test system is ISMR1: isometamidium-resistant T. brucei cell line. Nature of the test: microbe, parasite or virus in culture. To be noted: for EC50: Trypanosoma brucei; for RF (ISMR1): resistance factor vs Lister 427WT. In kind it is cell-based, Trypanosoma brucei brucei. On the procedure:
as §1

In test [5] the test system is TbAT1-KO: T. brucei cell line lacking the TbAT1(P2) transporter gene. Nature of the test: microbe, parasite or virus in culture. To be noted: for EC50: Trypanosoma brucei; for RF (TbAT1-KO): resistance factor: ratio of EC50 of resistant and Lister 427WT. In kind it is cell-based, Trypanosoma brucei brucei. As to the method: as §1
For test [6], the system named is B48: pentamidine, diminazene and melaminophenyl arsenical resistant T. brucei line. Nature of the test: microbe, parasite or virus in culture. It counts as cell-based, Trypanosoma brucei brucei. To be noted: for EC50: Trypanosoma brucei; for RF (B48): resistance factor vs Lister 427WT.
Test [7] has as its system T. b. brucei Squib 427. Nature of the test: Mouse model of acute HAT. Conditions: Suramin 10 mg/kg sid IP. As to the method: Drinking water and food were available ad libitum throughout the experiment. […] The reference drug suramin was formulated in phospahte-buffered saline (PBS) at 2.5 mg mL^−1 and administered s.i.d. i.p. for 5 days at 10 mg kg^−1 (n = 3). All treatments were initiated 30 min prior to the i.p. infection. […] Parasitaemia was determined by microscopic evaluation of tail vein blood samples at 4, 7, 10, 14 and 21 dpi (pre-set endpoint). As a test of cure, blood samples (250 µL) were collected from treated mice at 21 dpi and were sub-inoculated i.p. in naive Swiss mice (n = 3), followed by monitoring of parasitaemia as follow-up.

The mark [8] stands for this setting: DCF +, single replicate, read-out: EC50.
The mark [9] stands for this setting: DCF -, single replicate, read-out: EC50.
Where [10] appears, read: Trypanosoma brucei, DCF +, average of replicates, read-out: EC50 AVG.
Setting [11] is: Trypanosoma brucei, DCF +, read-out: EC50 Reported value.
[12] abbreviates: Trypanosoma brucei, DCF -, average of replicates, read-out: EC50 AVG.
Where [13] appears, read: Trypanosoma brucei, DCF -, read-out: EC50 Reported value.
The mark [14] stands for this setting: source data, read-out: s427 EC50, AVG.
Setting [15] is: source data, read-out: ISMR1 EC50, AVG.
[16] abbreviates: read-out: TbAT1-KO EC50, AVG, source data.
[17] abbreviates: source data, read-out: B48 EC50, AVG.
The mark [18] stands for this setting: mean and SEM, n = 3, read-out: Lister 427 EC50.
[19] abbreviates: mean and SEM, n = 3, read-out: ISMR1 EC50.
Setting [20] is: read-out: TbAT1-KO EC50, mean and SEM, n = 3.
Where [21] appears, read: mean and SEM, n = 3, read-out: B48 EC50.

The source of these data is article PMC6895180 (Nature Communications, 2019).

Each structure is given as a SMILES string. Where “and” joins values, the source holds several entries; their conditions need not be identical. Equal values may be shown once. Read-outs that look alike come from different tables or passages of the source. Marks after values point to notes of the source that are not given here.

With `Nc1nc(N)nc(Nc2ccc([As]3SCC(CO)S3)cc2)n1` (stereo not shown) [Melarsoprol, reference compound], the “BLI of the head region, RLU data” value was 20700000 RLU and 53700000 RLU in test [1] (3 wpi (start of treatment, 21 dpi)); 96900 RLU and 114000 RLU in test [1] (4 wpi); 83900 RLU and 96500 RLU in test [1] (5 wpi); 85000 RLU and 111000 RLU in test [1] (6 wpi); 90100 RLU and 74800 RLU in test [1] (7 wpi); 81700 RLU and 77100 RLU in test [1] (8 wpi). Further, the “BLI of the head region, RLU data” value in test [1] (9 wpi) was 73000 RLU and 85000 RLU. For the same compound, the “RLU data, individual mice” value in test [1] (3 wpi) is 133100000 RLU and 14890000 RLU; in test [1] (4 wpi), 121700 RLU and 135100 RLU; in test [1] (5 wpi), 112200 RLU and 109500 RLU; in test [1] (6 wpi), 106700 RLU and 93980 RLU; in test [1] (7 wpi), 99910 RLU and 79400 RLU; in test [1] (8 wpi), 117400 RLU and 101400 RLU. The “RLU data, individual mice” value was 93050 RLU and 80330 RLU in test [1] (9 wpi); 77170 RLU and 73440 RLU in test [1] (11 wpi); 62170 RLU and 64300 RLU in test [1] (12 wpi); 67840 RLU and 67090 RLU in test [1] (14 wpi). In addition, the “parasite burdens in brain, spleen and fat by SL-RNA qPCR” value in test [1] (tissues collected at 121 dpi) was “complete absence of parasite burdens”. In addition, the “luminescent signal in the head region” value in test [1] (to levels similar to a non-infected control mouse) is recorded as “rapid decline of the signal”.
As a reminder, the EC50 is the concentration needed to bring the measured effect to its halfway point. As for `Nc1ncnc2c1ccn2[C@@H]1O[C@H](CO)[C@@H](O)[C@H]1O` [Tubercidin (6)], the EC50 in test [2] (setting [8]) was 173 nM and 283 nM and 470 nM; in test [2] (setting [9]) it was 227 nM and 250 nM; in test [2] (setting [10]), 309 nM; in test [2] (setting [11]), 310 ± 70 nM; in test [2] (setting [12]), 223 nM; in test [2] (setting [13]), 220 ± 10 nM. In test [2] (Trypanosoma brucei, DCF -, single replicate, read-out: EC50), the concentration giving a half-maximal response (EC50) was determined as 194 nM.
For the compound `Nc1ncnc2c1c(-c1ccccn1)cn2[C@@H]1O[C@H](CO)[C@@H](O)[C@H]1O` [Compound 7], the EC50 is 170 nM in test [3] (setting [14]), 433 nM in test [4] (setting [15]), 404 nM in test [5] (setting [16]) and 265 nM in test [6] (setting [17]).
With `N=C(N)c1ccc(OCCCCCOc2ccc(C(=N)N)cc2)cc1` [Pentamidine, reference compound], the EC50 in test [3] (setting [18]) came out at 11 ± 1 nM; in test [3] (setting [14]), 9.93 nM; in test [4] (setting [19]), 140 ± 40 nM; in test [4] (setting [15]) it was 138 nM; in test [5] (setting [20]) it was 18 ± 2 nM; in test [6] (setting [21]), 990 ± 160 nM. Also, the EC50 in test [6] (setting [17]) worked out at 877 nM. In addition, the “RF (ISMR1)” value in test [4] is reported as 13.8**. For the same compound, the “RF (TbAT1-KO)” value in test [5] is recorded as 1.8**. Besides, in test [6], the “RF (B48)” value is 94.6***.
With `N=C(N)c1ccc(/N=N/Nc2ccc(C(=N)N)cc2)cc1` [Diminazene, reference compound], the EC50 in test [3] (setting [18]) stood at 420 ± 64 nM; in test [3] (setting [14]), 423 nM; in test [4] (setting [19]) it was 2900 ± 400 nM; in test [4] (setting [15]), 2920 nM; in test [5] (setting [16]), 4470 nM; in test [5] (setting [20]), 4500 ± 900 nM. Further, the EC50 stood at 7200 ± 1600 nM in test [6] (setting [21]) and 7150 nM in test [6] (setting [17]). In addition, in test [4], the “RF (ISMR1)” value is reported as 6.9***. The “RF (TbAT1-KO)” value in test [5] is reported as 10.6***. The “RF (B48)” value in test [6] is given as 16.9***.
As to `Nc1ncnc2c1ncn2[C@@H]1O[C@H](CO)C[C@H]1O` [Cordycepin (3)], the concentration for a half-maximal effect (EC50) is 5.51 nM and 1.22 nM and 4.17 nM in test [2] (setting [8]); 169 nM and 509 nM and 634 nM in test [2] (setting [9]); 3.63 nM in test [2] (setting [10]); 3.6 ± 1 nM in test [2] (setting [11]); 437 nM in test [2] (setting [12]); 440 ± 110 nM in test [2] (setting [13]).
As to `Cc1ccc(C(=O)Nc2ccc(S(=O)(=O)O)c3cc(S(=O)(=O)O)cc(S(=O)(=O)O)c23)cc1NC(=O)c1cccc(NC(=O)Nc2cccc(C(=O)Nc3cc(C(=O)Nc4ccc(S(=O)(=O)O)c5cc(S(=O)(=O)O)cc(S(=O)(=O)O)c45)ccc3C)c2)c1` [suramin, reference compound], the “parasitaemia, individual mice” value in test [7] (4 dpi), in test [7] (7 dpi), in test [7] (10 dpi), in test [7] (14 dpi) and in test [7] (21 dpi) was 0 throughout.
As for `CC[n+]1c(-c2ccccc2)c2cc(N/N=N/c3cccc(C(=N)N)c3)ccc2c2ccc(N)cc21` [Isometamidium, reference compound], the EC50 turned out to be 650 ± 85 nM in test [3] (read-out: Lister 427 EC50, mean and SEM, n = 3); 758 nM in test [3] (setting [14]); 3100 ± 500 nM in test [4] (setting [19]); 5050 nM in test [4] (setting [15]); 736 nM in test [5] (setting [16]); 750 ± 140 nM in test [5] (setting [20]). In addition, the half-maximal effective concentration (EC50) in test [6] (setting [21]) was 560 ± 130 nM; in test [6] (setting [17]) it was 514 nM. The “RF (ISMR1)” value in test [4] was 4.8***. The “RF (TbAT1-KO)” value in test [5] is reported as 1.2. In test [6], the “RF (B48)” value is 0.85.
Take `Nc1ncnc2c1c(Br)cn2[C@@H]1O[C@H](CO)C[C@H]1O` [FH7429-up (10)]: the 50% effective concentration (EC50) in test [2] (DCF +, average of replicates, read-out: EC50 AVG) is 1.9 nM; in test [2] (DCF +, read-out: EC50 Reported value), 1.9 ± 0.2 nM; in test [2] (setting [8]), 2.01 nM and 2.18 nM and 1.52 nM; in test [2] (DCF -, average of replicates, read-out: EC50 AVG) it was 2.02 nM; in test [2] (DCF -, read-out: EC50 Reported value) it was 2 ± 0.1 nM; in test [2] (setting [9]) it was 1.9 nM and 1.86 nM and 2.3 nM.
